Test results published in patent publication US20220017468A1, “ISOQUINOLINE COMPOUNDS AND THEIR USE IN TREATING AhR IMBALANCE” (Dermavant Sciences GmbH, priority 2020, published 2022).

Key:
[1] = target: T1, AhR (Homo sapiens, UniProt P35869); assay: CYP1A1-bla LS-180 AhR agonist assay; format: cell-based; settings: CYP1A1-bla LS-180 cells, ~20 hrs
T1 construct: LS-180 cells stably transfected with a CYP1A1 promoter-linked beta-lactamase gene reporter construct; endogenous in cells; host or cells: CYP1A1-bla LS-180 cells
T1 sequence (P35869 11-848): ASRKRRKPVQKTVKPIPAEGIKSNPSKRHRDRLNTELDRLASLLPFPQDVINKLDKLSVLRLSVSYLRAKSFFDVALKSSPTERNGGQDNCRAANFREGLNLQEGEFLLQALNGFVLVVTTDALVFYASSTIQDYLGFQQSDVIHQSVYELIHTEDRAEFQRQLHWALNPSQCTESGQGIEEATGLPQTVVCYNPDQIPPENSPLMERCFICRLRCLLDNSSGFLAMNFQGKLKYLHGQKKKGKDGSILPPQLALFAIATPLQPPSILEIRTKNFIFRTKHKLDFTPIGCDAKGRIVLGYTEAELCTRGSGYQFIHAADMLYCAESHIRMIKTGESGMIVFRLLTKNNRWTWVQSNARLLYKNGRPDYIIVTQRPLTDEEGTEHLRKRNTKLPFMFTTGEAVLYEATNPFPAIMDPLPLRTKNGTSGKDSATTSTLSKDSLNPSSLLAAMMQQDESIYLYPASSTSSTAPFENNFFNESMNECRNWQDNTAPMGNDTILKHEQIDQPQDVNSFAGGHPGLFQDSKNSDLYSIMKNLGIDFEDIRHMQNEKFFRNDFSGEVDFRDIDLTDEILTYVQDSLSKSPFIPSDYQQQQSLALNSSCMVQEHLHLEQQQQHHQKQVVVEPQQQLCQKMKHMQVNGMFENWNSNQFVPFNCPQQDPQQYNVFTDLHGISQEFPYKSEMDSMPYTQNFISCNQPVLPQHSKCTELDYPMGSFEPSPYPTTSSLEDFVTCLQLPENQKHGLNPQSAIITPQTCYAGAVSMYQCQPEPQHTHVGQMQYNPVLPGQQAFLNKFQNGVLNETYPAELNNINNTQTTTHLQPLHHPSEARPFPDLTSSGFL
Protocol: LS-180 cells stably transfected with a CYP1A1 promoter-linked beta-lactamase gene reporter construct (termed CYP1A1-bla LS-180 cells) were used to characterize the ability of compounds to activate AhR. In brief, AhR activity was measured using the LiveBLAzer assay kit which utilizes a beta lactamase (bla) reporter gene downstream of CYP1A1 promoter, which metabolizes its substrate to give a fluorescent readout. For the agonist assay, CYP1A1-bla LS-180 cells were treated with increasing concentrations of compound over a 100,000-fold concentration range.
CYP1A1-bla LS-180 cells in exponential growth phase were washed twice with DPBS then seeded into 96-well microplates (50,000 cells/well) and allowed to adhere. […] The LiveBLAzer FRET B/G β-lactamase substrate was added in the final hour of incubation and resulting blue/green fluorescence was measured using a 96-well microplate reader.
AhR activity was measured as a function of beta-lactamase expression using a fluorescence resonance energy transfer-based readout. TCDD and FICZ were used as controls to validate the system.

[2] = test system: primary human cell culture platforms; assay: BioMAP Diversity Plus profiling; format: cell-based; settings: profiles overlaid
[3] = target: T1, AhR; settings: value reported by Invitrogen; cited from earlier work
[4] = test system: IL-17A; assay: CD4+ T cell IL17 assay; format: cell-based, human
Protocol: Therefore, compounds are evaluated for their ability to reduce IL-17 production from CD4+ T cells stimulated under Th17-skewing conditions. Cryopreserved human CD4^+ T cells (AllCells, LLC, Alameda, CA and Stemcell Technologies, Inc. Vancouver, Canada) were differentiated to the Th17 subtype by culturing for 5 days in CD3-coated tissue culture plates (2 μg/mL) in Iscove's modified Dulbecco's medium (IMDM) containing 10% HI-FBS, 55 μM 2-mercaptoethanol and soluble anti-CD28 (3 μg/mL) in the presence of a Th17 skewing cocktail, [IL-1β (10 ng/mL), IL-6 (30 ng/mL), TGFβ (0.5 ng/mL), IL-21 (10 ng/mL), IL-23 (10 ng/mL), anti-IFNγ (10 μg/mL) and anti-IL-4 (10 μg/mL)] in the presence or absence of serially diluted compounds. Secretion of IL-17 from polarized CD4+ T-cells was measured in the culture media using an MSD (Meso Scale Discovery) detection system following 5 day exposure toTh17 polarization reagents with and without compounds.

[5] = test system: Nrf2; assay: luciferase-based reporter assay for NQO1 gene expression; format: cell-based
[6] = target: T2, CB2 (Homo sapiens, UniProt P34972); assay: fluorescence-based agonist assay using genetically modified yeast; format: cell-based; settings: read-out: CB2 pEC50 (converted)
T2 construct: expressed in transfected cells

[7] = oxygen radical absorbance capacity (ORAC) test; format: biochemical; settings: Trolox Equivalent Values

T2 sequence (P34972 whole entry, species assumed): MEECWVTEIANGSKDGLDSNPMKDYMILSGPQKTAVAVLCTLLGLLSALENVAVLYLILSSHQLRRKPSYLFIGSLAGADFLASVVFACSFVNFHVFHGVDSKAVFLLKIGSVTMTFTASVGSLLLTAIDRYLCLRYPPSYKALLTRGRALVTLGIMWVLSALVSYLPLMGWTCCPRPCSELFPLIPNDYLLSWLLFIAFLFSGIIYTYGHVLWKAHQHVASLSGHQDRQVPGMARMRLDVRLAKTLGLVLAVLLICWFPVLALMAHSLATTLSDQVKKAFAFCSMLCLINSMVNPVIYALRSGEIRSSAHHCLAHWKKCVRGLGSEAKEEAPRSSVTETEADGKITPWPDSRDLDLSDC

IC50 ([4]; T-cell, MSD-based readout of secreted IL-17A from Th17-polarized primary human CD4+ peripheral blood T cells, read-out: IL-17A pIC50 (converted)) [nM] | Nrf2 pEC50 [5] | EC50 [6] [nM] | Compound | pEC50 [1] | sIL-17 in BioMAP [2] | pEC50 reported by Invitrogen [3] | IL-17A production ([4]; Th17-skewing conditions, applied throughout culture) | Hydroxyl-radical [7] [TEV] | Peroxyl radical-hydro [7] [TEV] | Peroxyl radical-lipo [7] [TEV] | Peroxynitrite [7] [TEV] | Singlet oxygen [7] [TEV] | Superoxide anion [7] [TEV] | Total ORAC value [7] [TEV]
– | – | – | 6-formylindolo(3,2-b)carbazole [FICZ, reference compound] | 6.82 | not seen | – | – | – | – | – | – | – | – | –
– | – | – | Clc1cc2c(cc1Cl)Oc1cc(Cl)c(Cl)cc1O2 [TCDD] | 10.34 | – | 9.70 | – | – | – | – | – | – | – | –
3.16 | pEC50 = 7.6 | 158 | CC(C)c1c(O)cc(/C=C/c2ccccc2)cc1O [tapinarof] | – | not seen | – | suppression of IL-17A | 1067 | 4663 | 2164 | 140 | 3581 | 11241 | 22855
